Experimental data from patent US8686022B2, “7-(piperazine-1-ymethyl)-1H-indole-2-carboxylic acid (phenyl)-amide derivatives and allied compounds as p38 MAP kinase inhibitors for the treatment of respiratory diseases” (Boehringer Ingelheim International GmbH, priority 2008, dated 2014).
≈ marks a conversion by molar mass, not a printed value.

Experiments:
p38 MAP-kinase = p38 MAP-kinase (Homo sapiens, UniProt Q16539); experiment: p38 MAP-kinase enzymatic assay (phosphorylation of GST-tagged ATF2, chemoluminescence); type: biochemical; conditions: inhibitor concentration 1 μM; activated p38 MAP-kinase 1 nM; ATP 100 μM; read-out: p38 (% Inh @ 1 μM)
p38 MAP-kinase, sequence (Q16539 whole entry): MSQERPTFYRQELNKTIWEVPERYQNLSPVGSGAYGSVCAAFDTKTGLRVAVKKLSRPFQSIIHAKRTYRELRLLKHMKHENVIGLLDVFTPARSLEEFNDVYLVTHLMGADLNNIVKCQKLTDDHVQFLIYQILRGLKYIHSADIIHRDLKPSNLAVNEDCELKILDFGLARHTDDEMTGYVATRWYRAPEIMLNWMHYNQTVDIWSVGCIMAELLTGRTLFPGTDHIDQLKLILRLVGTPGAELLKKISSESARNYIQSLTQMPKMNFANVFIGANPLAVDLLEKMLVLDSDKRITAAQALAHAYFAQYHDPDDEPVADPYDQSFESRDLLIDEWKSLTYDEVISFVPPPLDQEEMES
Method: In this, the amount of a substrate phosphorylated by the kinase is quantified. The test is carried out as follows:
The kinase reaction is carried out in the presence of HEPES (20 mM, pH 7), MgCl2 (10 mM), DTT (1 mM) and TWEEN20 (0.01%). First, dimethylsulphoxide or inhibitor (final concentration: 1 μM) dissolved in dimethylsulphoxide are placed in a reaction vessel. Then the activated p38 MAP-kinase (final concentration 1 nM) is added and the mixture is incubated for 4 h at ambient temperature. Then a mixture of substrate (GST-tagged ATF2) and ATP is added and everything is incubated together for a further hour (final concentration ATP: 100 μM; final concentration ATF2: 10 nM).
The concentration of phosphorylated ATF2 is quantified by chemoluminescence-induced light emission. For this, a glutathione donor bead (final concentration: 5 μg/ml) which binds to the gluthathione on the ATF2 and phospho-ATF2 antibodies are added to the reaction mixture (final concentration: 3 nM; this binds the phosphate group added by the kinase reaction) to which a Protein A Acceptor Bead (final concentration: 5 μg/ml) binds. These components are dissolved in a buffer which contains 20 mM HEPES pH 7.0, 200 mM NaCL, 80 mM EDTA as well as 0.3% BSA. This reaction mixture is incubated in the dark for 1 hour at ambient temperature. When these beads come physically close, visible light is emitted which is measured in a photometer at 520-620 nm.
To determine the inhibitory activity of the compounds according to the invention a calculation is made to determine the percentage by which the kinase activity is inhibited at a fixed inhibitor concentration of 1 μM. The maximum activity is determined by non-inhibited kinase. The minimum activity or nonspecific background activity is determined using a reaction mixture without kinase.
Table 2 summarises the degree of inhibition of the enzyme p38 MAP-kinase—as described hereinbefore—mediated by the compounds according to the invention detailed in the section “Preparation of the final compounds”.

[1] = Determining the solubility (saturated solution in McIlvaine buffer pH 7.4, UV spectroscopy); type: physicochemical; conditions: pH 7.4, aqueous buffer, thermodynamic from solid, shaken 2 hours, 0.75 mg solid in 0.75 ml
Method: Determining the Solubility:
Saturated solutions are prepared in suitable well dishes by adding 0.75 ml of a McIlvaine buffer (pH 7.4) to the well in question containing 0.75 mg of solid of an active substance. The wells are shaken for 2 hours and then filtration is carried out through a suitable filter membrane (typically polytetrafluoroethylene with a pore size of 0.45 μm). Filter absorption is prevented by discarding the first few drops of filtrate. The amount of active substance dissolved is determined by UV spectroscopy.

cytochrome P450 2C9 = cytochrome P450 2C9 (Homo sapiens, UniProt P11712); experiment: Determining the cyp2C9 activity (O-demethylation of [O-methyl-14C]-naproxen); type: in vitro ADME; conditions: human recombinant cytochrome P450 2C9; 37° C.; <0.4 μM when inhibition >50% at lowest concentration; read-out: CYP 2C9 IC50
cytochrome P450 2C9, sequence (P11712 whole entry): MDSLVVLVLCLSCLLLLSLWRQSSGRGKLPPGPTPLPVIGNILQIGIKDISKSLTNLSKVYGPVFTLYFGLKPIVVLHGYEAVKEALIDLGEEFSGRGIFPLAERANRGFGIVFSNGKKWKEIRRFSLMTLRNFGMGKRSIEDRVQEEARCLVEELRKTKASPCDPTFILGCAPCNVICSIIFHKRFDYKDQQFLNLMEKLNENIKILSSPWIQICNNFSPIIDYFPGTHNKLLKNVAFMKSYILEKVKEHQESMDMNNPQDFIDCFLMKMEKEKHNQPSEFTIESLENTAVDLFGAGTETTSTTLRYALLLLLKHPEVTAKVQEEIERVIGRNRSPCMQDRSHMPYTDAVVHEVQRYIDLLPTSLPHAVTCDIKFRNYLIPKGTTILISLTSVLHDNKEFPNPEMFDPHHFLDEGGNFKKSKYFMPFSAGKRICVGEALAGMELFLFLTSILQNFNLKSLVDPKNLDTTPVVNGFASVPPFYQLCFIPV
Method: Determining the cyp2C9 Activity:
The assay is carried out in a robot system with 96-well plates. The final incubation volume is 200 μl of TRIS-Puffer (0.1 M), magnesium chloride (5 mM), recombinant protein (40 pmol/ml), ^14C-labelled naproxen (80 μM) and the test compound in one of 4 concentrations (50 μM, 10 μM, 2 μM and 0.4 μM) as a duplicate in each case. After a short preincubation period the reactions are started by the addition of the cofactor (NADPH, 1 mM) and ended after 15 min by the addition of 50 μl of a 10% aqueous trichloroacetic acid solution. One aliquot of the incubate is transferred onto a 96-well solid phase extraction plate and extracted. The ^14C-formaldehyde formed during the reaction is not retained on the solid phase extraction plate and is thus separated from the unmetabolised substrate by washing the solid phase extraction plate with water. One aliquot of the eluate is transferred into a well plate suitable for liquid scintillation. […] The IC50 is determined by the least squares method using the following formula: control activity=(100% control activity/(1+(I/IC50)S))−B where I=Inhibitor concentration S=Pitch B=Background activity
When the inhibition of the reaction is >50% even at the lowest concentration of the test compound, the IC50 is given as <0.4 μM.

Row | Compound | inhibition at 1 µM (p38 MAP-kinase) | solubility at 2 h [1] | IC50 (cytochrome P450 2C9)
1 | COc1c(NC(=O)c2cc3cccc(CN4CCC(C(=O)N5CC[C@@H](N(C)C)C5)CC4)c3n2C)cc(C(C)(C)C)cc1NS(C)(=O)=O [1(24), (R)-7-[4-(3-dimethylamino-pyrrolidine-1-carbonyl)-piperidin-1-ylmethyl]-1-methyl-1H-indole-2-carboxylic acid-(5-tert-butyl-3-methanesulphonylamino-2-methoxy-phenyl)-amide] | 54.2% | 36 µg/mL (≈ 54 µM) | 2.47 µM
2 | COc1c(NC(=O)c2cc3cccc(CN4CCN(C(=O)C5(C)CC5)CC4)c3n2C)cc(C(C)(C)C)cc1NS(C)(=O)=O [Vb, reference compound] | 99.1% | < 1 µg/mL | < 0.4 µM
3 | COc1c(NC(=O)c2cc3cccc(CN4CCN(C(=O)[C@@H]5C[C@@H](O)CN5C)CC4)c3n2C)cc(C(C)(C)C)cc1NS(C)(=O)=O [1(8), 7-[4-((2S,4R)-4-hydroxy-1-methyl-pyrrolidine-2-carbonyl)-piperazin-1-ylmethyl]-1-methyl-1H-indole-2-carboxylic acid(5-tert-butyl-3-methanesulphonylamino-2-methoxy-phenyl)-amide] | 98.9% | 84 µg/mL (≈ 128 µM) | 1.02 µM
4 | COc1c(NC(=O)c2cc3cccc(CN4CCCN(C(=O)C5CCN(C)CC5)CC4)c3n2C)cc(C(C)(C)C)cc1NS(C)(=O)=O [8(1), 1-methyl-7-[4-(1-methyl-piperidine-4-carbonyl)-[1,4]diazepan-1-ylmethyl]-1H-indole-2-carboxylic acid-(5-tert-butyl-3-methanesulphonylamino-2-methoxy-phenyl)-amide] | 98.1% | 120 µg/mL (≈ 180 µM) | 6.48 µM
5 | COc1c(NC(=O)c2cc3cccc(CN4CCN(C(=O)N5CC[C@@H](N(C)C)C5)CC4)c3n2C)cc(C(C)(C)C)cc1NS(C)(=O)=O [Example 2, (R)-7-[4-(3-dimethylamino-pyrrolidine-1-carbonyl)-piperazin-1-ylmethyl]-1-methyl-1H-indole-2-carboxylic acid(5-tert-butyl-3-methanesulohonylamino-2-methoxy-phenyl)-amide] | 99.1% | 10 µg/mL (≈ 15 µM) | 1.29 µM

Second part, the molecule after the results:

Row | inhibition at 1 µM (p38 MAP-kinase) | solubility at 2 h [1] | IC50 (cytochrome P450 2C9) | Compound
6 | 96.4% | 59 µg/mL (≈ 93.8 µM) | 0.65 µM | COc1c(NC(=O)c2cc3cccc(CN4CCN(C(=O)[C@@H]5CCCN5C)CC4)c3n2C)cc(C(C)(C)C)cc1NC(=O)C1CC1 [12(4), (S)-1-methyl-7-[4-(1-methyl-pyrrolidine-2-carbonyl)-piperazin-1-ylmethyl]-1H-indole-2-carboxylic acid-[5-tert-butyl-3-(cyclopropanecarbonyl-amino)-2-methoxy-phenyl]-amide]
7 | 99.1% | 420 µg/mL (≈ 668 µM) | 1.32 µM | COc1c(NC(=O)c2cc3cccc(CN4CCN(C(=O)[C@@H]5CCCN5C)CC4)c3n2C)cc(C(C)(C)C)cc1C(=O)NC1CC1 [Example 10, (S)-1-methyl-7-[4-(1-methyl-pyrrolidine-2-carbonyl)-piperazin-1-ylmethyl]-1H-indole-2-carboxylic acid-(5-tert-butyl-3-cyclopropylcarbamoyl-2-methoxy-phenyl)-amide]
8 | 98% | 690 µg/mL (≈ 986 µM) | 8.11 µM | CCN(CC)C1CCN(Cc2cc(C(C)(C)C)cc(NC(=O)c3cc4cccc(CN5CCN(C(=O)[C@@H]6CCCN6C)CC5)c4n3C)c2OC)C1 (stereo partly drawn) [9(4), 1-methyl-7-[4-((2S)-1-methyl-pyrrolidine-2-carbonyl)-piperazin-1-ylmethyl]-1H-indole-2-carboxylic acid-[5-tert-butyl-3-(3-diethylamino-pyrrolidin-1-ylmethyl)-2-methoxy-phenyl]-amide]
9 | 99.4% | 390 µg/mL (≈ 632 µM) | 0.46 µM | CCNC(=O)c1cc(C(C)(C)C)cc(NC(=O)c2cc3cccc(CN4CCN(C(=O)[C@@H]5CCCN5C)CC4)c3n2C)c1OC [10(2), (S)-1-methyl-7-[4-(1-methyl-pyrrolidine-2-carbonyl)-piperazin-1-ylmethyl]-1H-indole-2-carboxylic acid-(5-tert-butyl-3-ethylcarbamoyl-2-methoxy-phenyl)-amide]
